Experimental data reported in patent publication US7632972B2, “Compounds and methods for treatment of cancer and modulation of programmed cell death for melanoma and other cancer cells” (The Board of Trustees of the University of Illionis, priority 2003, dated 2009).
Read-outs that look alike come from different tables or passages of the source.

Key:
U-937 cells [1] = assay: High-throughput cell death assay on library members (MTS/PMS); type: cell-based, human; details: library members at 100 μM, 24 hours
Experimental: A three-tiered system was devised to identify compounds that selectively induce apoptosis in cancer cells. First, all compounds were screened at 100 μM in a high-throughput manner for their ability to induce death in two cancer cell lines, HL-60 (leukemia) and U-937 (lymphoma).
Test compounds were transferred into the wells using a 96-pin transfer apparatus (V & P Scientific, San Diego Calif.) that transfers 0.2 μL of compound. The compounds were made up as 50 mM stock solutions in 100% EtOH, so one transfer gave a final concentration of 100 μM. Controls were performed in which only EtOH (containing no compound) was pin-transferred into wells containing cells. The cells were incubated with the compounds for 24 hours, and then cell death was quantitated.

UACC-62 = assay: Death induction in melanoma cell line; type: cell-based, human
Experimental: (§1) Given the interesting and somewhat unusual trait of G1 arrest, compounds x and y were tested for their ability to induce death in two melanoma cell lines: UACC-62 (human), and B16-F10 (mouse). […] Compounds x and y were also submitted for testing in the NCl 60-cell line assay. […] The triphenylamides (TPAs) induce apoptosis in these melanoma cell lines.

B16-F10 = assay: Death induction in melanoma cell line; type: cell-based, mouse
Experimental: as §1

U-937 cell line = assay: Death induction by amide library, MTS dye reduction; type: cell-based, human; details: hit compounds of first generation library; read-out: IC50 Value-U-937 cells
Experimental: Compounds were tested in a U937 cell assay as previously described by Hergenrother et al. (see Hergenrother 2003 and U.S. 60/516,566).
The ability of the 100 amides thus produced to induce death in cancer cells was assessed by an assay based on the reduction of the MTS (3-(4,5-dimethylthiazol-2-yl)-5-(3-carboxymethoxyphenyl)-2-(4-sulfophenyl)-2H-tetrazolium, inner salt) dye. This tetrazolium dye is rapidly converted to the formazan product by living cells, and therefore provides a sensitive readout of cell life or death that can be monitored at 490 nm.

U-937 cells [2] = assay: cells; type: cell-based, human; details: Homo sapiens; Table 13, U-937
human bone marrow cells = assay: Toxicity to bone marrow cells of a healthy donor, MTS bioreduction after 72 hours; type: cell-based; details: Bone marrow cell, Table 13, bone marrow cells of healthy donor
Excerpt: Specificity for cancer cells. The vast majority of anti-cancer drugs are toxic to all rapidly dividing cell types, often leading to deleterious side effects and a reduced therapeutic window. For instance, hematopoietic bone marrow is responsible for the production of red and white blood cells, and the anemia observed upon treatment with certain chemotherapy agents is in a large part due to the toxicity of the anti-cancer drugs on cells in the human bone marrow. Thus, to determine the relative effect of the triphenylamides on melanoma versus normal cells, cells derived from the human bone marrow of a healthy donor were used; measurement of the effect on healthy bone marrow cells can assist in assessing the toxicity of putative anti-cancer agents. (17-20) These cells were treated with increasing concentrations of the compounds shown in Table 13, and cell viability was evaluated after 72 hours using the MTS bioreduction assay. The data in Table 13 indicate that several of the triphenyl amides have selective toxicity to melanoma cells versus the human bone marrow cells.

HL-60 cells = assay: Determination of IC50 values, cell death by MTS/PMS after 72 h; details: Homo sapiens, HL-60, read-out: HL-60
Experimental: General Cell Culture Conditions: U-937 and HL-60 cell lines were grown in RPMI 1640 supplemented with 10% FBS and incubated at 37° C. in a 5% CO2, 95% air atmosphere and were split every two to three days as necessary.
Cells were then resuspended in RPMI 1640+10% FBS, counted using a hemocytometer and diluted so that 10,000 cells were seeded in to each well of a Corning 96-well flat bottom microtiter plate (Fisher, Chicago Ill.). Media was then added to bring the total volume of each well to 100 μL. Each compound was weighed and then diluted with EtOH to make a 100 mM stock solution. The compounds were added at 9 or more different concentration in 1 μL of EtOH. After a 72 h incubation (37° C. in a 5% CO2, 95% air atmosphere) cell death was quantitated by addition of 20 μL of the MTS/PMS CellTiter 96 Cell Proliferation Assay reagent (Promega, Madison Wis.) to each well. The plates were incubated at 37° C. for approximately 1 hour until the colored product formed and the absorbance was then measured at 490 nm in a Spectra Max Plus 384 plate reader (Molecular Devices, Sunnyvale Calif.). The IC50 was taken as the concentration that caused 50% cell death.

[3] = Homo sapiens, Table 13, UACC-62 melanoma, read-out: UACC-62
[4] = Mus musculus, B16-F10, Table 13, B16F10 melanoma, read-out: B16F10
[5] = UACC-62, human melanoma cell line, read-out: IC50, UACC-62
[6] = B16-F10, mouse melanoma cell line, read-out: IC50, BF16-F10

With `COc1ccc(CCNC(=O)/C=C/c2ccccc2)cc1` [Compound 18-A] the “Induction of death in U-937 cells (percentages of cell death)” value (from here on “Induction … (percentages of cell death)”) (U-937 cells [1]) was 56%.
`COc1ccc(CCNC(=O)/C=C/c2ccc(O)cc2)cc1` [Compound 18-B] was tested, and the “Induction … (percentages of cell death)” value (U-937 cells [1]) was 17%.
`COc1ccc(CCNC(=O)/C=C/c2ccc(O)c(O)c2)cc1` [Compound 18-C] was tested, and the “Induction … (percentages of cell death)” value (U-937 cells [1]) was 26%.
In the case of `COc1ccc(CCNC(=O)/C=C/c2ccc(O)c(OC)c2)cc1` [Compound 18-D], the “Induction … (percentages of cell death)” value (U-937 cells [1]) is reported as 66%.
`COc1ccc(CCNC(=O)/C=C/c2ccc(OC)c(O)c2)cc1` [Compound 18-E] was tested, and the “Induction … (percentages of cell death)” value (U-937 cells [1]) was 73%.
For `COc1ccc(CCNC(=O)/C=C/c2cc(OC)c(OC)c(OC)c2)cc1` [Compound 18-F], the “Induction … (percentages of cell death)” value (U-937 cells [1]) was 40%.
With `COc1ccc(CCNC(=O)/C=C/c2cc(OC)c(O)c(OC)c2)cc1` [Compound 18-G] the “Induction … (percentages of cell death)” value (U-937 cells [1]) was 35%.
In the case of `COc1ccc(CCNC(=O)/C=C/c2cccc(OC)c2)cc1` [Compound 18-H], the “Induction … (percentages of cell death)” value (U-937 cells [1]) is reported as 56%.
For `O=P1(N(CCCl)CCCl)NCCCO1` (stereo not shown) [Cyclophosphamide], the IC50 (UACC-62; Homo sapiens, UACC-62, read-out: UACC-62) was over 100000 nM and the IC50 (B16-F10; Mus musculus, B16-F10, read-out: B16F10) was over 100000 nM.
In the case of `COc1cc([C@@H]2c3cc4c(cc3[C@@H](O[C@@H]3O[C@@H]5CO[C@@H](C)O[C@H]5[C@H](O)[C@H]3O)[C@H]3COC(=O)[C@H]23)OCO4)cc(OC)c1O` [Etoposide], the IC50 (UACC-62; [3]) is reported as over 100000 nM and the IC50 (B16-F10; [4]) is reported as over 100000 nM.
Compound `C[C@]12C=CC(=O)C=C1CC[C@@H]1[C@@H]2C(=O)C[C@@]2(C)[C@H]1CC[C@]2(O)C(=O)CO` [Prednisone] has an IC50 (UACC-62; [3]) of over 100000 nM and an IC50 (B16-F10; [4]) of over 100000 nM.
In the case of `O=C(NCCc1ccccc1)C(c1ccccc1)(c1ccccc1)c1ccccc1` [drawing 68, R = H], the IC50 (U-937 cell line) is reported as 8000 nM.
Work on `COc1ccc(CCNC(=O)CC(c2ccccc2)(c2ccccc2)c2ccccc2)cc1OC` [drawing 69, R1 = H, R2 = OCH3, R3 = OCH3] yielded an IC50 (U-937 cell line) of 18300 nM.
For `COc1ccccc1CCNC(=O)CC(c1ccccc1)(c1ccccc1)c1ccccc1` [drawing 69, R1 = OCH3, R2 = H, R3 = H], the IC50 (U-937 cell line) was 15700 nM.
For `O=C(NCCc1ccccc1)C(c1ccccc1)(c1ccccc1)c1ccccc1` [drawing 73], the IC50 (UACC-62; [5]) was 490 nM and the IC50 (B16-F10; [6]) was 420 nM.
In the case of `COc1cccc(CCNC(=O)CC(c2ccccc2)(c2ccccc2)c2ccccc2)c1` [drawing 74], the IC50 (UACC-62; [5]) is reported as 1340 nM and the IC50 (B16-F10; [6]) is reported as 850 nM.
Work on `O=C(NC12CC3CC(CC(C3)C1)C2)C(c1ccccc1)(c1ccccc1)c1ccccc1` [drawing 75] yielded an IC50 (UACC-62; [5]) of 2400 nM and an IC50 (B16-F10; [6]) of 15600 nM.
In the case of `O=C(NC12CC3CC(CC(C3)C1)C2)C(c1ccccc1)(c1ccccc1)c1ccccc1` [drawing 78], the IC50 (U-937 cells [2]) is reported as 480 nM, the IC50 (UACC-62; [3]) is reported as 2410 nM and the IC50 (B16-F10; [4]) is reported as 15700 nM. For the same compound, the IC50 (human bone marrow cells) was 590 nM and the IC50 (HL-60 cells) was 850 nM.
